Earlier results on 1 compound are cited in patent publication US7622458B2, “Combination of ET-743 and a 5-fluorouracil pro-drug for cancer treatment” (Pharma Mar, S.A.U., priority 2004, dated 2009).

The subject of data set [1] is sarcoma and breast and ovarian carcinoma. The following applies: 1-, 3-, 24-, 72-hour i.v. infusion and 1 hour daily x5 schedules; patients with sarcoma and breast and ovarian carcinoma.
Data set [2] relates to human tumor xenografts, including melanoma and ovarian and breast carcinoma. The note with it: xenografts grown in athymic mice.

The structures appear in SMILES notation.

`COc1cc2c(cc1O)CCN[C@]21CS[C@@H]2c3c(OC(C)=O)c(C)c4c(c3[C@H](COC1=O)N1[C@@H]2[C@H]2c3c(cc(C)c(OC)c3O)C[C@@H]([C@@H]1O)N2C)OCO4` [ET-743, ecteinascidin 743]: the “Clinical responses in phase I studies” value in data set [1] is recorded as “Promising responses”. Moreover, in data set [2], the “Antineoplastic activity against human tumor xenografts” value is “potent antineoplastic activity”.
